Test results taken from patent publication US20260262643A1, “HERBICIDAL BENZOXAZINES” (FMC CORPORATION, priority 2022, published 2026).

What was measured:
barnyardgrass [1] = experiment: Test C preemergence; format: in vivo, Echinochloa crusgalli; settings: Preemergence
Outline: (§1)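 Seeds sown in loam soil–sand blend received a directed preemergence soil spray of test chemical in non-phytotoxic solvent with surfactant; postemergence plants (2–10 cm, one- to two-leaf stage) were sprayed with the same formulation. Greenhouse-held 10 days, then visually rated for injury versus untreated controls, 0 (no effect) to 100 (complete control).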

blackgrass [2] = experiment: Test C preemergence; format: in vivo, Alopecurus myosuroides; settings: Preemergence
Outline: as §1

corn [3] = experiment: Test C preemergence; format: in vivo, Zea mays
Outline: as §1

green foxtail [4] = experiment: Test C preemergence; format: in vivo, Setaria viridis; settings: for Plant response rating, Foxtail, Green: Preemergence
Outline: as §1

kochia [5] = experiment: Test C preemergence; format: in vivo, Bassia scoparia; settings: for Plant response rating, Kochia: Preemergence
Outline: as §1

oat, wild [6] = experiment: Test C preemergence; format: in vivo, Avena fatua
Outline: as §1

pigweed, palmer [7] = experiment: Test C preemergence; format: in vivo, Amaranthus palmeri; settings: for Plant response rating, Pigweed, Palmer: Preemergence
Outline: as §1

ragweed [8] = experiment: Test C preemergence; format: in vivo, Ambrosia artemisiifolia; settings: for Plant response rating, Ragweed: Preemergence
Outline: as §1

ryegrass, Italian [9] = experiment: Test C preemergence; format: in vivo, Lolium multiflorum; settings: for Plant response rating, Ryegrass, Italian: Preemergence
Outline: as §1

soybean = experiment: Test C preemergence; format: in vivo, Glycine max
Outline: as §1

wheat = experiment: Test C preemergence; format: in vivo, Triticum aestivum
Outline: as §1

barnyardgrass [10] = experiment: Test C postemergence; format: in vivo, Echinochloa crusgalli; settings: 10 days
Outline: as §1

blackgrass [11] = experiment: Test C postemergence; format: in vivo, Alopecurus myosuroides; settings: 10 days
Outline: as §1

corn [12] = experiment: Test C postemergence; format: in vivo, Zea mays; settings: 500 g ai/ha, 10 days
Outline: as §1

green foxtail [13] = experiment: Test C postemergence; format: in vivo, Setaria viridis; settings: 10 days
Outline: as §1

galium = experiment: Test C postemergence; format: in vivo, Galium aparine; settings: Postemergence, 10 days, visual 0 to 100 scale (0 no effect, 100 complete control)
Outline: as §1

horseweed = experiment: Test C postemergence; format: in vivo, Erigeron canadensis; settings: 10 days
Outline: as §1

barnyardgrass [14] = experiment: Test D flooded paddy test; format: in vivo, Echinochloa crus-galli; settings: 250 g ai/ha, applied to paddy water, visual rating after 13 to 14 days, scale 0 to 100 (0 no effect, 100 complete control)
Outline: (§2)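 Plants grown to the 2-leaf stage; pots flooded to 3 cm above soil at treatment and held at that depth throughout. Test compounds applied directly to the paddy water. After 13 to 14 days in a greenhouse, response was rated visually versus controls on a 0 (no effect) to 100 (complete control) scale.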

ducksalad = experiment: Test D flooded paddy test; format: in vivo, Heteranthera limosa; settings: 250 g ai/ha, applied to paddy water, visual rating after 13 to 14 days, scale 0 to 100 (0 no effect, 100 complete control)
Outline: as §2

rice = experiment: Test D flooded paddy test; format: in vivo, Oryza sativa; settings: 250 g ai/ha, applied to paddy water, visual rating after 13 to 14 days, scale 0 to 100 (0 no effect, 100 complete control)
Outline: as §2

sedge, umbrella = experiment: Test D flooded paddy test; format: in vivo, Cyperus difformis; settings: 250 g ai/ha, applied to paddy water, visual rating after 13 to 14 days, scale 0 to 100 (0 no effect, 100 complete control)
Outline: as §2

kochia [15] = experiment: Test C postemergence; format: in vivo, Bassia scoparia; settings: 10 days
Outline: as §1

pigweed, palmer [16] = experiment: Test C postemergence; format: in vivo, Amaranthus palmeri; settings: 10 days
Outline: as §1

ragweed [17] = experiment: Test C postemergence; format: in vivo, Ambrosia artemisiifolia; settings: Postemergence, 1000 g ai/ha, 10 days, visual 0 to 100 scale (0 no effect, 100 complete control)
Outline: as §1

ryegrass, Italian [18] = experiment: Test C postemergence; format: in vivo, Lolium multiflorum; settings: Postemergence, 1000 g ai/ha, 10 days, visual 0 to 100 scale (0 no effect, 100 complete control)
Outline: as §1

oat, wild [19] = experiment: Test C postemergence; format: in vivo, Avena fatua; settings: 500 g ai/ha, postemergence, 10 days, 0 to 100 scale (0 no effect, 100 complete control)
Outline: as §1

[20] = 500 g ai/ha, visual rating after 10 days, 0 to 100 scale (0 no effect, 100 complete control)
[21] = 500 g ai/ha, preemergence, 0 to 100 scale (0 no effect, 100 complete control)
[22] = Postemergence, 500 g ai/ha, visual 0 to 100 scale (0 no effect, 100 complete control)
[23] = 1000 g ai/ha, visual rating after 10 days, 0 to 100 scale (0 no effect, 100 complete control)
[24] = Postemergence, 1000 g ai/ha, visual 0 to 100 scale (0 no effect, 100 complete control)
[25] = 125 g ai/ha, 0 to 100 scale, 0 no effect, 100 complete control
[26] = Preemergence, 125 g ai/ha, 0 to 100 scale, 0 no effect, 100 complete control
[27] = 500 g ai/ha, postemergence, 0 to 100 scale (0 no effect, 100 complete control)

Compound: CC(C)c1ncn(-c2cc(O)c(O)c(C(=O)N3C[C@H](C)Oc4c(Cl)cccc43)c2)n1 [Compound 272, [(2S)-8-chloro-2-methyl-2,3-dihydro-1,4-benzoxazin-4-yl]-[2,3-dihydroxy-5-(3-isopropyl-1,2,4-triazol-1-yl)phenyl]methanone]
- Plant response rating, Barnyardgrass (barnyardgrass [1]; [20]): 0
- Plant response rating, Blackgrass (blackgrass [2]; [20]): 0
- Corn plant response rating (corn [3]; [21]): 0
- Foxtail, Green plant response rating (green foxtail [4]; [21]): 0
- Kochia plant response rating (kochia [5]; [21]): 0
- Oat, Wild plant response rating (oat, wild [6]; [21]): 0
- Pigweed, Palmer plant response rating (pigweed, palmer [7]; [21]): 90
- Ragweed plant response rating (ragweed [8]; [21]): 30
- Ryegrass, Italian plant response rating (ryegrass, Italian [9]; [21]): 0
- Soybean plant response rating (soybean; [21]): 0
- Wheat plant response rating (wheat; [21]): 0
- Plant response rating, Barnyardgrass (barnyardgrass [10]; [22]): 0
- pest or weed control at 500 g/ha (blackgrass [11]; Alopecurus myosuroides, post-emergence, 240 h, Postemergence, 500 g ai/ha, visual 0 to 100 scale (0 no effect, 100 complete control), read-out: Plant response rating, Blackgrass): 0%
- Corn plant response rating (crop injury, 0 = no effect, 100 = complete kill) at 500 g/ha (corn [12]; Zea mays, post-emergence, 240 h, Postemergence, visual 0 to 100 scale (0 no effect, 100 complete control)): 0%
- Plant response rating, Foxtail, Green (green foxtail [13]; [22]): 0
- Plant response rating, Galium (galium; 500 g ai/ha): 0
- Plant response rating, Horseweed (horseweed; [22]): 10
- Plant response rating, Barnyardgrass (Flood) (barnyardgrass [14]): 0
- Plant response rating, Ducksalad (Flood) (ducksalad): 0
- Plant response rating, Rice (Flood) (rice): 0
- Plant response rating, Sedge, Umbrella (Flood) (sedge, umbrella): 0

Compound: Cc1ncc(-c2cccc(C(=O)N3C[C@H](C)Oc4c(Cl)cccc43)c2)s1 [Compound 296]
- Plant response rating, Barnyardgrass (barnyardgrass [1]; [23]): 100
- Plant response rating, Blackgrass (blackgrass [2]; [23]): 50
- Plant response rating, Foxtail, Green (green foxtail [4]; [23]): 100
- Plant response rating, Kochia (kochia [5]; [23]): 90
- Plant response rating, Pigweed, Palmer (pigweed, palmer [7]; [23]): 100
- Plant response rating, Ragweed (ragweed [8]; [23]): 70
- Plant response rating, Ryegrass, Italian (ryegrass, Italian [9]; [23]): 80
- Plant response rating, Barnyardgrass (barnyardgrass [10]; [24]): 50
- Plant response rating, Blackgrass (blackgrass [11]; [24]): 80
- Plant response rating, Foxtail, Green (green foxtail [13]; [24]): 80
- Plant response rating, Kochia (kochia [15]; [24]): 90
- Plant response rating, Pigweed, Palmer (pigweed, palmer [16]; [24]): 90
- Plant response rating, Ragweed (ragweed [17]): 80
- Plant response rating, Ryegrass, Italian (ryegrass, Italian [18]): 30
- Plant response rating, Galium (galium; 1000 g ai/ha): 100
- Plant response rating, Horseweed (horseweed; [24]): 60
- Plant response rating, Barnyardgrass (Flood) (barnyardgrass [14]): 0
- Plant response rating, Ducksalad (Flood) (ducksalad): 0
- Plant response rating, Rice (Flood) (rice): 0
- Plant response rating, Sedge, Umbrella (Flood) (sedge, umbrella): 0

Compound: CCOC[C@H]1CN(C(=O)c2cc(-n3cnc(C(C)C)n3)cc3c2OCO3)c2cccc(Cl)c2O1 [Compound 400]
- Plant response rating, Barnyardgrass (barnyardgrass [1]; [25]): 50
- Plant response rating, Blackgrass (blackgrass [2]; [25]): 0
- Plant response rating, Corn (corn [3]; [26]): 0
- Plant response rating, Foxtail, Green (green foxtail [4]; [25]): 70
- Plant response rating, Kochia (kochia [5]; [25]): 50
- Plant response rating, Oat, Wild (oat, wild [6]; [26]): 0
- Plant response rating, Pigweed, Palmer (pigweed, palmer [7]; [25]): 100
- Plant response rating, Ragweed (ragweed [8]; [25]): 30
- Plant response rating, Ryegrass, Italian (ryegrass, Italian [9]; [25]): 60
- Plant response rating, Soybean (soybean; [26]): 20
- Plant response rating, Wheat (wheat; [26]): 0
- Plant response rating, Barnyardgrass (barnyardgrass [10]; [27]): 50
- Plant response rating, Blackgrass (blackgrass [11]; [27]): 70
- Plant response rating, Corn (corn [12]; postemergence, 0 to 100 scale (0 no effect, 100 complete control)): 50
- Plant response rating, Foxtail, Green (green foxtail [13]; [27]): 40
- Plant response rating, Kochia (kochia [15]; [27]): 90
- Plant response rating, Oat, Wild (oat, wild [19]): 20
- Plant response rating, Pigweed, Palmer (pigweed, palmer [16]; [27]): 100
- Plant response rating, Horseweed (horseweed; [27]): 20
- Plant response rating, Barnyardgrass (Flood) (barnyardgrass [14]): 15
- Plant response rating, Ducksalad (Flood) (ducksalad): 45
- Plant response rating, Rice (Flood) (rice): 0
- Plant response rating, Sedge, Umbrella (Flood) (sedge, umbrella): 40
